Experimental data taken from patent US10849915B2, “Methods for treating inflammatory bowel disease using prostate specific membrane antigen (PSMA) inhibitors” (The Johns Hopkins University, priority 2014, dated 2020).

Key:
DSS-induced colitis = test: DSS-induced murine model of colitis; format: in vivo, mice (C57/B6)
From the text: DSS-induced colitis model was generated as described previously (Alex et al., 2009; Alex et al., 2010). […] The fact that mutations in either IL-10 or IL-10 receptors in human lead to spontaneous Crohn's disease at very early age (usually less than 1 year old) (Glocker et al., 2011), further emphasize the critical role of IL-10 signaling pathway in its anti-inflammatory and immune-modulatory effects in the gut and the homeostasis of healthy gut.

PSMA = target: T1, PSMA (Mus musculus, UniProt O35409); test: GCPII (PSMA) ex vivo activity assay on mucosa extract of DSS colitis mice; format: biochemical; settings: DSS-treated mice, extract from mucosa; FIG. 4
T1 construct: from tissue; host or cells: colonic or cecal mucosa of C57/B6 mice with DSS-induced colitis (sonicated tissue lysate supernatant)
T1 sequence (O35409 whole entry): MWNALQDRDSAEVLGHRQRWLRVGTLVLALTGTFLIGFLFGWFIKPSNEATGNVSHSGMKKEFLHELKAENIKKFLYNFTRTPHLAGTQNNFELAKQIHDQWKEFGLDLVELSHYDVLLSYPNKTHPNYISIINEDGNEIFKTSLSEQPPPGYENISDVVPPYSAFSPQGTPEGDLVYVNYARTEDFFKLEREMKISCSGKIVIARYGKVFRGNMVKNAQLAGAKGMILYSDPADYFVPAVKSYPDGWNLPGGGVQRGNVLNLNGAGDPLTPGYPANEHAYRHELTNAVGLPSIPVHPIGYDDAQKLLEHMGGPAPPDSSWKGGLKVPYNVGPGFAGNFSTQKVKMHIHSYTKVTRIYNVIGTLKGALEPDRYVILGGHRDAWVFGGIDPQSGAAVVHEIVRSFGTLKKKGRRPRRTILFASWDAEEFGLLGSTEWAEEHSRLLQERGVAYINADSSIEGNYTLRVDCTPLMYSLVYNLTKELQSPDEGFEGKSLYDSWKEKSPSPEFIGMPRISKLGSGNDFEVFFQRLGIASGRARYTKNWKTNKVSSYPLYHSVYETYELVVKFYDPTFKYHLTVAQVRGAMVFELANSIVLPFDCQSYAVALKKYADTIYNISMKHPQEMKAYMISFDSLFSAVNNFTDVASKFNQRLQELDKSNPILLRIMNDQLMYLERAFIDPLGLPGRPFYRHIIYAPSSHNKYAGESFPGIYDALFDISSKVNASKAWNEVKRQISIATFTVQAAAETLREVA
Description: On the day of the ex vivo experiment, the tissues were weighed and immersed in 0.5 ml of ice-cold 50 mM Tris Buffer (pH 7.7 at RT). While on ice, each tissue was sonicated for 30-60 seconds (medium output, 60) via use of a Kontes Ultrasonic Cell Disrupter. After a 2 min spin at 13,000 rpm, supernatants were analyzed for protein content (Dc Protein Assay Kit; Bio Rad). NAAG-hydrolyzing activity measurements were carried out, based on published procedures Robinson et al., 1987; Rojas et al., 2002). Briefly, the reaction mixture (total volume of 50 μL) contained NAA[3H]G (70 nM, 50 Ci/mmol) and tissue lysates (7 concentrations each, tested in quadruplicate), in Tris-HCl (pH 7.4, 40 mM) containing 1 mM CoCl2. Assay standards were comprised of human recombinant GCPII enzyme (40-200 pM, final). The reaction was carried out at 37° C. for 40-45 min and stopped with ice-cold sodium phosphate buffer (pH 7.4, 0.1 M, 50 μL). Blanks were obtained by incubating the reaction mixture in the absence of enzyme source. A 90 μL aliquot from each terminated reaction was transferred to a well in a 96-well spin column containing AG1X8 ion-exchange resin; the plate was centrifuged at 1500 rpm for 5 min using a Beckman GS-6R centrifuge equipped with a PTS-2000 rotor. […] The radioactivity corresponding to [3H]-G was determined with a scintillation counter (Topcount NXT, Packard, counting efficiency 80%). […]

[1] = tested on: spontaneous colitis in IL-10 KO mice; test: IL-10 knockout mice with spontaneous colitis; format: in vivo, mice (C57/B6)
[2] = 2-PMPA 100 mg/kg i.p., daily for 8 days, DSS mice, 2 h after dosing on day 8
Description: Blood and colonic mucosa were collected for drug PK analysis. Plasma was generated from blood by centrifugation and all samples were stored at −80° C. until further analysis. Concentrations of inhibitors in plasma and tissue were determined via LC/MS/MS as described previously (Rais et al., 2013). Briefly, 2-PMPA was extracted from plasma and tissue by protein precipitation with 5× methanol containing 2-(phosphonomethyl) succinic acid (2-PMSA; 1 μM) as an internal standard. The samples were vortexed (30 s) and centrifuged (10,000 g for 10 min). Supernatant was dried under a gentle stream of nitrogen at 45° C. and the residue was reconstituted with 100 μL of acetonitrile and vortexed. 50 μL of derivatizing agent N-tert-Butyldimethysilyl-N-methyltrifluoro-acetamide (MTBSTFA) was added to microcentrifuge tubes, vortexed, and heated at approximately 60° C. for 40 min. At the end of 40 min, the derivatized samples were analyzed via LC/MS/MS. Chromatographic analysis was performed using an Accela™ ultra high-performance system consisting of an analytical pump, and an autosampler coupled with TSQ Vantage mass spectrometer (Thermo Fisher Scientific Inc., Waltham Mass.). […] The [M+H]+ ion transitions of derivatized 2-PMPA at m/z 683.0>551.4 and that of the internal standard at m/z 669.0>537.2 were monitored with the total run time of 5 min. […]

Compound	Disease activity index (DAI) (DSS-induced colitis; DSS 2.5%, 7 days in drinking water, 2-PMPA 100 mg/kg given simultaneously, vs vehicle, P<0.05, FIG. 3)	size and weight of spleen (DSS-induced colitis; DSS-induced murine model of colitis, FIG. 5)	spleen inflammation (DSS-induced colitis; mice with DSS-colitis, FIG. 5)	PSMA activity in the colonic and cecal mucosa (PSMA)	mice with complete retraction of prolapse ([1]; 2 of the 20 IL-10 KO mice treated, 100 mg/kg for 2 weeks, FIG. 6D) [%]	disease severity (macroscopic disease, colonic hypotrophy, stool consistency) ([1]; IL-10 KO mice, 3 month old, 2-PMPA 100 mg/kg for 2 weeks, FIGS. 6A-6B)	body weight of prolapse-retracting mice ([1]; compared to untreated control IL-10 KO mice, FIG. 6C)	2-PMPA concentration in plasma and colon [2]	colon shortening of DSS-colitis mice (DSS-induced colitis; oral administration, n=5 per group, P 0.06, not statistically significant, FIG. 9)
O=C(O)CCC(CP(=O)(O)O)C(=O)O (stereo not drawn) [2-PMPA, 2-(phosphonomethyl)-pentanedioic acid]	ameliorates disease activity	reduces	significantly reduced	potently inhibited	10	significantly reduced	increased dramatically	approximately 25 μM	
CC(C)OC(=O)OCOC(=O)C(CCC(=O)O)CP(=O)(OCOC(=O)OC(C)C)OCOC(=O)OC(C)C (stereo not drawn) [Tris-POC-2-PMPA]									reversed
